{"source": "patent US20120178763A1", "about": "“Method of Treating Anxious Major Depressive Disorder” (priority 2008, published 2012)", "key": {"Male Sprague Dawley rats": {"test_system": "Male Sprague Dawley rats", "assay": "Learned helplessness procedure", "type": "in vivo, rat", "conditions": "for Mean Center Crossings ± SEM: gauge of motor activity; for Mean Escape Failures ± (SEM): of 50 trials", "protocol": "Male Sprague Dawley rats were exposed to inescapable electrical stimulation for 2 successive, daily 1 hour periods (conditioning), and then subsequently trained to avoid or escape the electrical stimulation by running to the opposite side of the test cage. […] In the training phase, when the electrical stimulation was escapable, the number of escape failures was recorded. Standard shuttle cages (20 L×16 W×21 centimeters H) fitted with a grid floor were used. The chambers could be partitioned with a closed partition or with an archway that allowed the animals to pass between the 2 sides of the cage. A computer controlled and monitored all events in the chamber.\nThe procedure utilized involved an induction phase and an avoidance training phase. In the induction phase, rats were enclosed in one side of the shuttle cage and electrical stimulation (2 mA, […]) was delivered to the floor of the cage every 2, 5 or 10 seconds (randomly selected for each trial) until 90 electrical stimulations were delivered. Subjects had no opportunity to escape or to avoid the electrical stimulation. Induction was conducted for 2 consecutive days. In the avoidance training phase, a partition with an arch through which the rats could pass was inserted into the center of the shuttle cages. The method employed a standard shuttle avoidance in which a compound, conditioned stimulus (a 5 second presentation of a tone and turning on of a lamp on the side of the rat containing cage) served to indicate impending presentation of electrical stimulation to the floor of the cage. The electrical stimulation was presented for a 5 second period 5 seconds after initiation of the conditioned stimulus. […] A 30 second inter-trial interval was employed. 40 minute avoidance training sessions, consisting of 50 trials were conducted on 2 consecutive days, beginning 48 hours after the final induction session.\nDosages of all compounds are reported as the free base. […] Drug was administered immediately following conditioning and training sessions and approximately 7-8 hrs after the first injection, as well as on the day in the middle of the study when no conditioning or training was conducted. In study 2, imipramine was administered 30 minutes prior to avoidance training whereas in all other circumstances, drug was administered following training.\nThe primary dependent variable was escape failures during avoidance training. […] T-Tests were used to compare the performance of the vehicle-administered group to drug treated groups. The no-induction group was used to gauge whether learned helplessness was established, by comparison to the vehicle treated group."}, "rats": {"test_system": "rats", "assay": "Punished responding procedure (modified Geller-Seifter conflict test)", "conditions": "for Rate of responding, Punished responding / Rate of responding, Unpunished responding: 60 minute pretreatment", "source_text": "In the conflict test, hungry animals were trained to lever-press for food delivery in a standard operant chamber under 2 conditions. In the first condition, referred to as the unsuppressed component, food was delivered on average after 17 lever-presses were made (also called a VR17 schedule of reinforcement). In the second condition, referred to as the suppressed component and signaled by flashing lights inside the operant chamber, food was also delivered following an average of 17 lever-presses, but electric shock was additionally delivered to the floor of the cage under a separate VR17 schedule. Daily sessions consisted of 5 alternating presentations of each component type: suppressed (3 minutes in duration) and unsuppressed (2 minutes in duration).\nCompound A was dissolved in distilled deionized water/lactic acid and was administered by mouth in a volume of 1 mL/kg body weight. […] Compound A was administered on Tuesday and Friday and vehicle on Thursday. Monday and Wednesday were washout/baseline days.\nStandard 2-lever operant chambers were used (Med Associates). The chambers were fitted with 2 retractable response levers and a stimulus lamp over each of the 2 levers. A pellet dispenser delivered 45 mg food pellets, (Bio Serv) to a cup located inside of the chamber below and between the 2 response levers. A lamp at the top and back of the chamber served as houselights. The grid floors of the operant chambers were interfaced to shock generators and scramblers (Med Associates). All events in the chambers were controlled and monitored by a microprocessor.\nThere were 2 components in the procedure: 1) an unsuppressed responding component (unpunished) with 2 minutes in duration; and 2) a suppressed responding component (punished) with 3 minutes in duration.\nIn the unpunished component, the houselights and both stimulus lamps over the response levers were turned on, the lever on the left-hand side of the chamber extended, and a food pellet was delivered following an average of 17 responses on the lever in the chamber (range 3 to 40 responses)—a variable-ratio 17 schedule (VR17).\nIn the punished component (which followed the unpunished component), the right-hand lever was extended into the chamber; the stimulus lamps and houselights were turned on and off at 1 second intervals, in succession, which served as a cue for this component; and food was available under a VR17 schedule, but was accompanied by an electrical current (0.5 second duration) that was delivered to the grid floor of the chamber under an independent VR17 schedule. The level of the current was adjusted for each individual subject until responding was reduced in the punished component to a level that was about 5% to 10% that of the unpunished component, and ranged from 0.2 mA to 0.75 mA. Unpunished and punished components were separated by 10 second time-out periods in which both response levers were retracted and all stimulus lamps turned off 2 minute unpunished and 3 minute punished components alternated until 5 of each were completed. Daily sessions always began with the unpunished responding component. […] Several doses were tested on a given test day in different subjects. Each dose, then, was tested in different sub-set of rats.\nThe dependent variables recorded were the rate of responding in unpunished and punished components (total responses/total time under the component) and the number of shocks delivered."}, "[1]": {"assay": "Efficacious mean plasma exposure in rodent tests of anxiolysis and antidepressant activity", "type": "in vivo", "conditions": "rodents; separate tests of anxiolysis and antidepressant activity"}}, "note": "“Also recorded” adds a separate entry of the source.", "data": [{"smiles": "CCN(CC)C(=O)c1ccc([C@H](c2cccc(N)c2)N2CCN(Cc3ccc(F)cc3)CC2)cc1", "note": "[Example 2, 4-{(R)-(3-aminophenyl)[4-(4-fluorobenzyl)piperazin-1-yl]methyl}-N,N-diethylbenzamide]", "values": [{"measurement": "Mean Center Crossings ± SEM", "setting": "Male Sprague Dawley rats; 0.1 mg/kg by mouth twice a day", "value": "26.6 (0.85)"}, {"measurement": "Mean Escape Failures ± (SEM)", "setting": "Male Sprague Dawley rats; 0.1 mg/kg by mouth twice a day", "value": "6.1 (3.4)"}, {"measurement": "Mean Center Crossings ± SEM", "setting": "Male Sprague Dawley rats; 1 mg/kg by mouth twice a day", "value": "30.9 (2.9)"}, {"measurement": "Mean Escape Failures ± (SEM)", "setting": "Male Sprague Dawley rats; 1 mg/kg by mouth twice a day", "value": "3.1 (1.7)"}, {"measurement": "Mean Center Crossings ± SEM", "setting": "Male Sprague Dawley rats; 10 mg/kg by mouth twice a day", "value": "26.9 (0.7)"}, {"measurement": "Mean Escape Failures ± (SEM)", "setting": "Male Sprague Dawley rats; 10 mg/kg by mouth twice a day", "value": "4.9 (2)"}, {"measurement": "effect on escape failures", "setting": "Male Sprague Dawley rats; 0.1, 1 and 10 mg/kg by mouth twice a day, only the 2 higher doses significant, listed as Compound A", "value": "tended to decrease escape failures; also recorded: produced a decrease in escape failures"}, {"measurement": "Percent of control, Punished responding", "setting": "rats; 0.21 μmol/kg by mouth", "value": "107 ± 19.3% of control"}, {"measurement": "Percent of control, Unpunished responding", "setting": "rats; 0.21 μmol/kg by mouth", "value": "103 ± 1.63% of control"}, {"measurement": "effect on punished responding", "setting": "rats; 0.21 μmol/kg by mouth", "value": "not effective"}, {"measurement": "Rate of responding, Punished responding", "setting": "rats; 0.21 μmol/kg by mouth", "value": "0.11 ± 0.02"}, {"measurement": "Rate of responding, Unpunished responding", "setting": "rats; 0.21 μmol/kg by mouth", "value": "2.06 ± 0.11"}, {"measurement": "Percent of control, Punished responding", "setting": "rats; 0.63 μmol/kg by mouth", "value": "273 ± 39.2% of control"}, {"measurement": "Percent of control, Unpunished responding", "setting": "rats; 0.63 μmol/kg by mouth", "value": "92.1 ± 5.12% of control"}, {"measurement": "Rate of responding, Punished responding", "setting": "rats; 0.63 μmol/kg by mouth", "value": "0.24 ± 0.03"}, {"measurement": "Rate of responding, Unpunished responding", "setting": "rats; 0.63 μmol/kg by mouth", "value": "2.02 ± 0.14"}, {"measurement": "Percent of control, Punished responding", "setting": "rats; 2.1 μmol/kg by mouth", "value": "298 ± 132% of control"}, {"measurement": "Percent of control, Unpunished responding", "setting": "rats; 2.1 μmol/kg by mouth", "value": "106 ± 5.60% of control"}, {"measurement": "Rate of responding, Punished responding", "setting": "rats; 2.1 μmol/kg by mouth", "value": "0.18 ± 0.04"}, {"measurement": "Rate of responding, Unpunished responding", "setting": "rats; 2.1 μmol/kg by mouth", "value": "1.95 ± 0.15"}, {"measurement": "increase in punished responding (maximal efficacy)", "setting": "rats; 2.11 μmol/kg by mouth", "value": "about 300%"}, {"measurement": "Percent of control, Punished responding", "setting": "rats; 6.3 μmol/kg by mouth", "value": "207 ± 67.2% of control"}, {"measurement": "Percent of control, Unpunished responding", "setting": "rats; 6.3 μmol/kg by mouth", "value": "106 ± 2.94% of control"}, {"measurement": "Rate of responding, Punished responding", "setting": "rats; 6.3 μmol/kg by mouth", "value": "0.17 ± 0.03"}, {"measurement": "Rate of responding, Unpunished responding", "setting": "rats; 6.3 μmol/kg by mouth", "value": "1.92 ± 0.13"}, {"measurement": "Percent of control, Punished responding", "setting": "rats; 21.1 μmol/kg by mouth", "value": "272 ± 100% of control"}, {"measurement": "Percent of control, Unpunished responding", "setting": "rats; 21.1 μmol/kg by mouth", "value": "95.5 ± 4.08% of control"}, {"measurement": "Rate of responding, Punished responding", "setting": "rats; 21.1 μmol/kg by mouth", "value": "0.20 ± 0.04"}, {"measurement": "Rate of responding, Unpunished responding", "setting": "rats; 21.1 μmol/kg by mouth", "value": "1.69 ± 0.12"}, {"measurement": "effect on rate of punished responding", "setting": "rats; 0.63, 2.11, 6.3, and 21.1 μmol/kg compared to vehicle controls", "value": "increased the rate of punished responding"}, {"measurement": "effect on unpunished responding", "setting": "rats; at the doses tested (0.21 to 21 μmol/kg)", "value": "did not significantly decrease unpunished responding"}, {"measurement": "acute anxiolytic activity", "setting": "rats; modified Geller-Seifter conflict model", "value": "has acute anxiolytic activity"}, {"measurement": "sedative/hyperactive properties", "setting": "rats; observations of test subjects in their home cage", "value": "does not possess sedative/hyperactive properties"}]}, {"smiles": "CCN(CC)C(=O)c1ccc([C@H](c2cccc(N)c2)N2CCN(Cc3ccc(F)cc3)CC2)cc1.CCN(CC)C(=O)c1ccc([C@H](c2cccc(N)c2)N2CCN(Cc3ccc(F)cc3)CC2)cc1.O=C(O)/C=C/C(=O)O.O=C(O)/C=C/C(=O)O.O=C(O)/C=C/C(=O)O", "note": "[Example 3, 4-{(R)-(3-aminophenyl)[4-(4-fluorobenzyl)piperazin-1-yl]methyl}-N,N-diethylbenzamide sesquifumarate]", "values": [{"measurement": "mean plasma exposures shown to be efficacious", "setting": "[1]", "value": "≥ 2", "unit": "ng/mL"}]}, {"smiles": "CN(C)CCCN1c2ccccc2CCc2ccccc21", "note": "[Imipramine, imipramine, reference compound]", "values": [{"measurement": "Mean Escape Failures ± (SEM)", "setting": "Male Sprague Dawley rats; 20 mg/kg by mouth twice a day", "value": "2.3 (1)"}]}, {"smiles": "CN1C(=O)CN=C(c2ccccc2)c2cc(Cl)ccc21", "note": "[diazepam, reference compound]", "values": [{"measurement": "level of efficacy in the conflict model (punished responding)", "setting": "rats; 3.5 μmol/kg by mouth, data not shown", "value": "~250", "unit": "%"}]}]}
